According to patent US20260209288A1, “PEPTIDES FOR REGULATING GLUCOSE” (Cooke Aquaculture Inc., priority 2019, published 2026):

Experiments:
L6 skeletal muscle cells = test: Glucose uptake experiments in L6 skeletal muscle cells (2-deoxy-[3H]glucose); type: cell-based
Method: Glucose uptake experiments were conducted as described by Roblet 2013. L6 skeletal muscle cells were grown in an a-minimum essential medium (a-MEM) containing 2% (v/v) fetal bovine serum (GBS) in an atmosphere of 5% CO2 at 37° C. [Tremblay 2001]. Cells were plated at 600,000 cells/plate in 24-well plates to obtain about 25,000 cells/mL. The cells were incubated 7 days, to reach their complete differentiation to myotubes (7 days post-plating). L6 myotubes were deprived of GBS for 3 h, with a a-MEM containing 0% of GBS. Then, the cells were incubated for 75 minutes, with 10 μl of EDUF fractions at a concentration of 1 μg/mL and 1 ng/ml. Finally, insulin was added (10 μl at 1.10-5M) for 45 min. Experiments were repeated 9 times, and each repetition was run in triplicate. After experimental treatments, cells were rinsed once with 37° C. HEPES-buffered solution (20 mM HEPES, pH 7.4, 140 mM NaCl, 5 mM KCl, 2.5 mM MgSO4, and 1 mM CaCl2)) and were subsequently incubated in HEPES-buffered solution containing 10 µM 2-deoxyglucose and 0.3 μCi/mL 2-deoxy-[3H] glucose for 8 minutes. Then, the cells were rinsed three times with 0.9% NaCl solution at 4° C. and then frozen. The next day, the cells were disrupted by adding 500 μl of a 50 mM NaOH solution. The radioactivity was determined by scintillation.

FAO rat hepatocytes = test: Hepatic glucose production experiments in FAO cells; type: cell-based
Method: Hepatic glucose production experiments were conducted as described by Chevrier et al, (2015). Briefly, FAO rat hepatocytes were grown and maintained in monolayer culture in Roswell Park Memorial Institute medium (RPMI) containing 10% FBS in an atmosphere of 5% CO2 at 37° C. Cells were plated at 4.10^6 cells/plate. […] […] Glucose production was measured in the medium by using the Amplex Red Glucose/Glucose Oxidase Assay kit (Invitrogen). Results shown are the mean response of at least 6 independent experiments realized in triplicate.

Substance	glucose uptake, dose-response effect (L6 skeletal muscle cells; IPVE at 1 ng/ml)	glucose uptake, dose-response effect (L6 skeletal muscle cells; IPVE at 10 ng/ml)	Bioactivity (L6 skeletal muscle cells; Table 1, identified peptides, glucose uptake)	nature of the glucose uptake response (L6 skeletal muscle cells; concentrations from 1 μg/mL to 10 μg/mL as printed)	glucose uptake, dose-response effect (L6 skeletal muscle cells; highest concentrations tested (>10 ng/ml))	enhancement of the glucose uptake (L6 skeletal muscle cells; in the presence of insulin, compared to the insulin control (P=0.016))	glucose uptake, dose-response effect (L6 skeletal muscle cells; lowest concentrations tested (<100 μg/mL))	Bioactivity (FAO rat hepatocytes; Table 1, identified peptides, hepatic glucose production)	decrease in HGP (hepatic glucose production) (FAO rat hepatocytes; basal condition)	decrease of the HGP (hepatic glucose production) (FAO rat hepatocytes; insulin condition: peptide incubated with insulin at 0.1 nm, compared to insulin at 0.1 nm)
IPVE: synthetic peptide of amino acid sequence IPVE, identified from salmon protein hydrolysate; increases glucose uptake	increase the bioactivity	increase the bioactivity	Increases glucose uptake	dose-dependent	no effect on the glucose uptake	17%	no effect on the glucose uptake	–	–	–
VAPEEHPTL	–	–	–	–	–	–	–	Decreases hepatic glucose production	20%	18%
